Experimental data as given in US6723742B2, “Substituted 3,5-diphenyl-1,2,4-triazoles and their use as pharmaceutical metal chelators” (Novartis AG., priority 1996, dated 2004).

Assays:
[1] = tested on: Male Sprague-Dawley rats; assay: Test I: iron excretion induced in bile duct-cannulated rats (bile and urine iron, bathophenanthroline method); assay type: in vivo; details: bile duct-cannulated fasted rat, bile and urine collected for 24 h
Procedure: Test I: Iron Excretion Induced by Compounds of Formula I or II [Method as Described in Bergeron et al., J. Med. Chem. 34:2072-2078 (1991)]
Male Sprague-Dawley rats averaging 400 g are housed in Nalgene plastic metabolic cages and are given free access to water. The animals are anesthetized with sodium pentobarbital (50 mg/kg), given ip. The bile duct is cannulated with 22 gauge PE 50 tubing which is inserted ca. 2 cm into the duct and tied firmly in place. A skin-tunneling needle is inserted from the shoulder area around the abdominal incision. The cannula is threaded through the needle until it emerges from the shoulder opening. The cannula is then passed from the animal to the swivel inside a metal torque-transmitting tether, which is attached to a rodent jacket. The cannula is directed from the animal to a Gilson microfraction collector by a fluid swivel mounted above the metabolic cage. This system allows the animal to move freely in the cage while continuous bile samples are being collected. Bile samples are collected in plastic disposable tubes at 3 h intervals for 24 h. Urine samples are collected in plastic disposable tubes for 24 h.
Compounds of formula I or II are prepared in 60 % water, 40 % Cremophor RH-40 (v/v).
All animals are fasted for 48 h before the administration of the compound of formula I or II and the fast is maintained throughout the course of the experiment.
The iron indicator solution, solution A, is prepared by diluting a stock aqueous solution of 0.134 mM mercaptoacetic acid and 1.9 mM bathophenanthrolinedisulfonic acid disodium salt with 5 parts water and 5 parts saturated aqueous sodium acetate. Solution B is prepared as above but without the bathophenanthroline.
An equal volume of a 10 % trichloroacetic acid solution in 3 M HCl (solution C) is added to a urine sample (2.5 ml), and the sample heated in a 65° C. bath for 4 h. After filtration through nylon filters, two 1 ml aliquots are removed. Solution A (5 ml) is added to the sample, and solution B (5 ml) is added to the blank. Bile samples are prepared as the urine samples; however, the volumes are reduced. Standard iron curves are generated with each assay. All samples are transferred to polystyrene cuvettes and the absorbance measured at 535 nm.
Compounds of formula I or II are effective in this assay when administered at a dose in the range of from 10 to 200 mg/kg, e.g. 100 to 150 mg/kg. The induced total iron excretion is in the range of about 10 to 1500 μg Fe/kg body weight, e.g. 90 to 1000 μg Fe/kg body weight.

[2] = tested on: iron-overloaded marmosets (Callithrix jacchus); assay: Test II: iron excretion induced in iron-overloaded marmosets (urine and feces iron); assay type: in vivo; details: iron-overloaded marmoset, p.o., dose 110.5 mg/kg; 48 h after administration, pretreatment subtracted; one line per animal
Procedure: Test II: Iron Excretion Induced by Compounds of Formula I or II [Method as Described in Bergeron et al., Blood 81:2166-2173 (1993)]
Adult (1 to 11 years old) marmosets (Callithrix jacchus) of both sexes, weighing 300 to 450 g are kept in pairs at 24-27° C. and a relative humidity of at least 60% in a 12-hour light-dark cycle. The animals are maintained on a pellet diet (No. 962 Nafag, Gossau, Switzerland) supplemented with fruit-vegetable mash, enriched with a vitamin-minerals concentrate (No. 9628 Nafag) and milk. Water is available ad libitum.
Iron-overloading procedure: The animals are iron-overloaded by 3 i.p. injections of iron (III) hydroxide polyisomaltose (Anaemex, Ciba-Geigy, Basel, Switzerland) at 14-day intervals (200 mg/kg twice and 100 mg/kg at the third injection). Prior to the first exposure to an iron chelator, the marmosets are rested at least 8 weeks.
Chelators administration: The test compounds are dispersed in 40 % aqueous Cremophor RH 40 (BASF, Ludwigshafen, Germany) for administration. The applied volume is 5 ml/kg body weight.
Iron excretion studies: The monkeys receive a low-iron diet 7 days before and throughout the experiments (4 days). The diet is prepared by mixing 628.9 g of a liquid diet for primates (Nafag No. 9694), 83 g of the corresponding lipid mixture (Nafag No. 9696), 131.3 g dietary fiber (Sanacell, Nafag) and 1.0 L of distilled water. […]

| Compound | induced total iron excretion ([1]; dose 100 mg/kg) [μg Fe/kg body weight] | other results |
| --- | --- | --- |
| O=C(Cn1nc(-c2ccccc2O)nc1-c1ccccc1O)NCCO [Example 24, 2-[3,5bis(2-hydroxyphenyl)-(1,2,4]triazol-1-yl]-N-(2-hydroxyethyl)acetamide] | 413 | – |
| CN(C)C(=O)Cn1nc(-c2ccccc2O)nc1-c1ccccc1O [Example 33, 2-[3,5-Bis(2-hydroxyphenyl)-[1,2,4]triazol-1-yl]-N,N-dimethylacetamide] | 282 | – |
| O=C(c1ccc(-n2nc(-c3ccccc3O)nc2-c2ccccc2O)cc1)N1CCOCC1 [Example 6, {4-[3,5-Bis(2-hydroxyphenyl)-[1,2,4]triazol-1-yl]-phenyl}morpholin-4-yl-methanone] | – | induced total iron excretion ([1]; dose 133 mg/kg): 968 μg Fe/kg body weight |
| O=C(Cn1nc(-c2ccccc2O)nc1-c1ccccc1O)NCCOCCO [Example 29, 2-[3,5-Bis(2-hydroxyphenyl)-[1,2,4]triazol-1-yl]-N-[2-(2-hydroxyethoxy)ethyl]-acetamide] | 359 | – |
| O=C(Cn1nc(-c2ccccc2O)nc1-c1ccccc1O)N1CCOCC1 [Example 34, 2-[3,5-Bis(2-hydroxyphenyl)-[1,2,4]triazol-1-yl]-l-morpholin-4-ylethanone] | 204 | – |
| O=C(Cn1nc(-c2ccccc2O)nc1-c1ccccc1O)NC(CO)CO [Example 31, 2-[3,5-Bis(2-hydroxyphenyl)-[1,2,4]triazol-1-yl]-N-(2-hydroxy-1-hydroxymethyl-ethyl)acetamide] | 175 | – |
| O=C(O)c1ccc(-n2nc(-c3cc(Cl)ccc3O)nc2-c2cc(Cl)ccc2O)cc1 [Example 17, 4-[3,5-Bis(5-chloro-2-hydroxyphenyl)-[1,2,4]triazol-1-yl]benzoic acid] | – | induced total iron excretion ([1]; dose 133 mg/kg): 203 μg Fe/kg body weight |
| COCCNC(=O)Cn1nc(-c2ccccc2O)nc1-c1ccccc1O [Example 25, 2-[3,5-Bis(2-hydroxyphenyl)-[1,2,4]triazol-1-yl]-N-(2-methoxyethyl)acetamide] | 337 | induced iron in feces [2]: 163.2 µg/kg |
| Cc1ccc(O)c(-c2nc(-c3cc(C)ccc3O)n(-c3ccc(C(=O)O)cc3)n2)c1 [Example 21, 4-[3,5-Bis(2-hydroxy-5-methylphenyl)-[1,2,4]triazol-1-yl]benzoic acid] | – | induced total iron excretion ([1]; dose 120 mg/kg): 317 μg Fe/kg body weight |
| O=C(O)c1ccc(-n2nc(-c3ccccc3O)nc2-c2ccccc2O)cc1 [Example 5, 4-[3,5-Bis(2-hydroxyphenyl)-[1,2,4]triazol-1-yl]benzoic acid] | 659 | – |
| O=C(Cn1nc(-c2ccccc2O)nc1-c1ccccc1O)NCCN1CCOCC1 [Example 27, 2-[3,5-Bis(2-hydroxyphenyl)-[1,2,4]triazol-1-yl]-N-(2-morpholin-4-yl-ethyl)-acetamide] | 451 | – |
| OCCn1nc(-c2ccccc2O)nc1-c1ccccc1O [Example 1, 3,5-Bis(2-hydroxyphenyl)-1-(2-hydroxyethyl)-1H-[1,2,4]triazole] | 368 | – |
| CN(C)CCN(C)C(=O)Cn1nc(-c2ccccc2O)nc1-c1ccccc1O [Example 38, 2-[3,5-Bis(2-hydroxyphenyl)-[1,2,4]triazol-1-yl]-N-(2-dimethylaminoethyl)-N-methylacetamide] | – | induced total iron excretion ([1]; dose 119 mg/kg): 970 μg Fe/kg body weight |
| O=C(O)Cn1nc(-c2ccccc2O)nc1-c1ccccc1O [Example 22, [3,5-Bis(2-hydroxyphenyl)-[1,2,4]triazol-1-yl]acetic acid] | 147 | – |
| CN1CCN(C(=O)Cn2nc(-c3ccccc3O)nc2-c2ccccc2O)CC1 [Example 35, 2-[3,5-Bis(2-hydroxyphenyl)-[1,2,4]triazol-1-yl]-1-(4-methylpiperazin-1-yl)-ethanone] | – | induced total iron excretion ([1]; dose 118 mg/kg): 293 μg Fe/kg body weight |
| CCOC(=O)Cn1nc(-c2ccccc2O)nc1-c1ccccc1O [Example 2, Ethyl [3,5bis(2-hydroxyphenyl)-[1,2,4]triazol-1-yl]acetate] | 91 | – |
| O=C(Cn1nc(-c2ccccc2O)nc1-c1ccccc1O)NCCN(CCO)CCO [Example 30, N-{2-[Bis(2-hydroxyethyl)amino]ethyl}-2-[3,5-bis(2-hydroxyphenyl)-[1,2,4]triazol-1-yl]acetamide] | 447 | – |
| CN(CCO)C(=O)Cn1nc(-c2ccccc2O)nc1-c1ccccc1O [Example 28, 2-[3,5-Bis(2-hydroxyphenyl)-[1,2,4]triazol-1-yl]-N-(2-hydroxyethyl)-N-methyl-acetamide] | 413 | – |
| O=C(Cn1nc(-c2ccccc2O)nc1-c1ccccc1O)N(CCO)CCO [Example 37, 2-[3,5-Bis(2-hydroxyphenyl)-[1,2,4]triazol-1-yl]-N,N-bis(2-hydroxyethyl)-acetamide] | 301 | – |
| O=C(Cn1nc(-c2ccccc2O)nc1-c1ccccc1O)NCC(O)CO (stereo not drawn) [Example 26, 2-[3,5-Bis(2-hydroxyphenyl)-[1,2,4]triazol-1-yl]-N-(2,3-dihydroxypropyl)-acetamide] | 171 | – |
